This passage reports MIC and Ratio results from ChEMBL document CHEMBL4219252, “Synthesis, antimycobacterial activity and influence on mycobacterial InhA and PknB of 12-membered cyclodepsipeptides” (Bioorg Med Chem, 2018).

Values after ≈ are worked out from the molar mass of the structure shown.

The term MIC denotes the least concentration at which growth counts as inhibited.

What all share (format): functional, variant bovis BCG
Experiment [1] has as its system Mycobacterium tuberculosis. Kind of experiment: Antimycobacterial activity against wild type Mycobacterium bovis BCG harboring pATB45 after 48 hrs by resazurin microtiter assay. (In general: The colour change of resazurin is a common sign of viable cells or microbes.)
The test system of experiment [2] is Mycobacterium tuberculosis. Description: Antimycobacterial activity against Mycobacterium bovis BCG harboring pATB45::inhA after 48 hrs by resazurin microtiter assay.
Experiment [3] deals with Mycobacterium tuberculosis. Kind of experiment: Ratio of MIC for Mycobacterium bovis BCG harboring pATB45::inhA to MIC for Mycobacterium bovis BCG harboring pATB45.
Where [4] appears, read: Mycobacterium tuberculosis, variant bovis BCG, 48 h, read-out: MIC.

In the case of `C[C@H]1OC(=O)CCC(Cc2ccccc2)NC(=O)[C@@H](NC(=O)c2ncccc2O)[C@@H](C)OC1=O` (some centres not stated), the MIC in experiment [1] (setting [4]) and in experiment [2] (setting [4]) was 62.5 µM (≈ 29.3 µg/mL) throughout. Also, the Ratio in experiment [3] is 1.

As for `C[C@H]1OC(=O)COC(=O)CCC(Cc2ccccc2)NC(=O)[C@H]1NC(=O)OC(C)(C)C` (stereo in doubt; form 1), the values for the MIC in experiment [1] and in experiment [2] were 62.5 µM (≈ 27.2 µg/mL) and 125 µM (≈ 54.3 µg/mL), respectively. In addition, in experiment [3], the Ratio is reported as 2.

In the case of `C[C@H]1OC(=O)COC(=O)CCC(Cc2ccccc2)NC(=O)[C@H]1NC(=O)OC(C)(C)C` (stereo in doubt; form 2), the MIC in experiment [1] and in experiment [2] was 7.8 µM (≈ 3.39 µg/mL) in each case. For the same compound, in experiment [3], the Ratio was found to be 1.

Turning to `NNC(=O)c1ccncc1` [ISONIAZID], the MIC in experiment [1] (setting [4]) was 0.8 µM (≈ 0.11 µg/mL); in experiment [2] (setting [4]) it was 12.5 µM (≈ 1.71 µg/mL). Further, in experiment [3], the Ratio is reported as 15.6.
